# Key:
# Settings in all cases: 72 h
# [1] = tested on: CAL-85-1
# Summary of the method: (§1)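 Breast cancer cell lines in 20 µl suspension were added to 384-well plates already holding compound at 5 concentrations, spaced in 10-fold steps across a compound-specific 10,000-fold range, and incubated for 72 h. CellTox Green fluorescence (485/520 nm) was read first to measure cell death, followed by CellTiter-Glo luminescence for viability after 10 min at room temperature. Each plate was normalised to 0.1 % DMSO and a positive kill control. EC50 values came from dose-response curve fits and were censored at the top concentration.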
# [2] = tested on: MDA-MB-468
# Summary of the method: as §1
# [3] = tested on: CAL-51
# Summary of the method: as §1
# [4] = tested on: BT-474
# Summary of the method: as §1
# [5] = tested on: CAL-120
# Summary of the method: as §1
# [6] = tested on: HCC1937
# Summary of the method: as §1
# [7] = tested on: MDA-MB-436
# Summary of the method: as §1
# [8] = tested on: MDA-MB-231
# Summary of the method: as §1
# [9] = tested on: MCF-10A
# Summary of the method: as §1
# [10] = tested on: HCC1143
# Summary of the method: as §1
# [11] = tested on: BT-549
# Summary of the method: as §1
# [12] = tested on: MDA-MB-453
# Summary of the method: as §1
# [13] = tested on: Hs578T
# Summary of the method: as §1
# [14] = tested on: CAL-148
# Summary of the method: as §1
# [15] = tested on: HCC1599
# Summary of the method: as §1
# [16] = tested on: MFM-223
# Summary of the method: as §1
# [17] = tested on: DU-4475
# Summary of the method: as §1
# [18] = tested on: SK-BR-3
# Summary of the method: as §1
# [19] = tested on: HDQ-P1
# Summary of the method: as §1
# [20] = tested on: BT-474; remark: listed apart in the source
# Summary of the method: (§2)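 To measure viability, fluorescence at 560/590 nm was read after 2.5 µl CellTiter-Blue had been added for 2 h at 37 °C. Cells from breast cancer lines had been seeded in 20 µl suspension onto 384-well plates pre-loaded with compound dissolved in 5 µl medium and kept for 72 h. EC50 comes from a fitted percent-inhibition dose-response curve censored at the highest concentration, after per-plate normalisation to vehicle and a positive kill control, Z'-factor checks, and removal of rows with zero drug sensitivity score.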
# [21] = tested on: CAL-85-1; remark: listed apart in the source
# Procedure: (§3)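 Drug sensitivity and resistance testing (DSRT) of breast cancer cell lines in 384-well plates, 5 concentrations in 10-fold dilutions over a compound-specific 10,000-fold range. After 72 h, cytotoxicity was read by CellTox Green fluorescence and viability by CellTiter-Glo luminescence (multiplexed), normalised to DMSO and benzethonium chloride controls. EC50 is the inflection point of the fitted dose-response curve (bottom asymptote free, so it can be relative for partial curves) and is censored at the highest tested concentration. Rows with DSS 0 (no meaningful response) were excluded.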
# [22] = tested on: MDA-MB-468; remark: listed apart in the source
# Procedure: as §3
# [23] = tested on: BT-474; remark: listed apart in the source
# Procedure: as §3
# [24] = tested on: CAL-120; remark: listed apart in the source
# Procedure: as §3
# [25] = tested on: MDA-MB-436; remark: listed apart in the source
# Procedure: as §3
# [26] = tested on: MCF-10A; remark: listed apart in the source
# Procedure: as §3
# [27] = tested on: MDA-MB-453; remark: listed apart in the source
# Procedure: as §3
# [28] = tested on: Hs578T; remark: listed apart in the source
# Procedure: as §3
# [29] = tested on: CAL-148; remark: listed apart in the source
# Procedure: as §3
# [30] = tested on: MFM-223; remark: listed apart in the source
# Procedure: as §3
# [31] = tested on: CAL-85-1; remark: listed apart in the source
# Summary of the method: as §2
# [32] = tested on: CAL-51; remark: listed apart in the source
# Summary of the method: as §2
# [33] = tested on: MDA-MB-453; remark: listed apart in the source
# Summary of the method: as §2
# [34] = tested on: CAL-148; remark: listed apart in the source
# Summary of the method: as §2
# [35] = tested on: DU-4475; remark: listed apart in the source
# Summary of the method: as §2
# [36] = tested on: HDQ-P1; remark: listed apart in the source
# Summary of the method: as §2
# [37] = tested on: HCC1143; remark: listed apart in the source
# Procedure: as §3
# [38] = tested on: BT-549; remark: listed apart in the source
# Procedure: as §3
# [39] = tested on: HCC1599; remark: listed apart in the source
# Procedure: as §3
# [40] = tested on: HDQ-P1; remark: listed apart in the source
# Procedure: as §3
# [41] = tested on: DU-4475; remark: listed apart in the source
# Procedure: as §3
Structure (SMILES),"EC50, CellTiter-Glo [2]","EC50, CellTiter-Glo [4]","EC50, CellTiter-Glo [6]","EC50, CellTiter-Glo [7]","EC50, CellTiter-Glo [8]","EC50, CellTiter-Glo [10]","EC50, CellTiter-Glo [11]","EC50, CellTiter-Glo [15]","EC50, CellTiter-Glo [18]","EC50, CellTiter-Blue viability [33]","EC50, CellTiter-Glo [1]","EC50, CellTiter-Glo [3]","EC50, CellTiter-Glo [5]","EC50, CellTiter-Glo [9]","EC50, CellTiter-Glo [13]","EC50, CellTiter-Glo [14]","EC50, CellTiter-Glo [16]","EC50, CellTiter-Glo [17]","EC50, CellTiter-Glo [19]","EC50, CellTiter-Blue viability [35]",further results
C#Cc1cccc(Nc2ncnc3cc(OC)c(OCCCCCCC(=O)NO)cc23)c1 [CUDC-101],0.202 µM,1.97 µM,1.47 µM,1.64 µM,0.689 µM,0.783 µM,1.17 µM,0.911 µM,0.507 µM,0.168 µM,0.212 µM,0.847 µM,3.23 µM,0.242 µM,1.92 µM,1.28 µM,0.19 µM,1.5 µM,3.36 µM,1.13 µM,"EC50, CellTiter-Glo [12]: 0.123 µM; EC50, CellTiter-Blue viability [20]: 0.474 µM; EC50, CellTox Green [21]: 0.208 µM; EC50, CellTox Green [22]: 0.775 µM; EC50, CellTox Green [23]: 2.72 µM; EC50, CellTox Green [24]: 5.1 µM; EC50, CellTox Green [25]: 0.792 µM; EC50, CellTox Green [26]: 8.03 µM; EC50, CellTox Green [27]: 0.271 µM; EC50, CellTox Green [28]: 6.67 µM; EC50, CellTox Green [29]: 1.7 µM; EC50, CellTox Green [30]: 1.6 µM; EC50, CellTiter-Blue viability [31]: 0.426 µM; EC50, CellTiter-Blue viability [32]: 3.79 µM; EC50, CellTiter-Blue viability [34]: 0.817 µM; EC50, CellTiter-Blue viability [36]: 0.213 µM"
O=c1[nH]cc(F)c(=O)[nH]1 [Fluorouracil],–,–,–,0.425 µM,–,–,–,–,0.556 µM,3.9 µM,0.272 µM,–,–,–,–,–,–,–,–,2.57 µM,"EC50, CellTox Green [25]: 7.05 µM; EC50, CellTiter-Blue viability [31]: 0.68 µM; EC50, CellTiter-Blue viability [32]: 5.39 µM; EC50, CellTiter-Blue viability [34]: 0.944 µM"
Cn1cnc2c(F)c(Nc3ccc(Br)cc3F)c(C(=O)NOCCO)cc21 [MEK-162],–,0.113 µM,–,–,–,–,–,–,–,–,–,–,> 1 µM,0.0118 µM,–,–,–,0.0787 µM,0.0135 µM,0.0389 µM,"EC50, CellTox Green [41]: 0.508 µM; EC50, CellTox Green [40]: 0.123 µM"

# Further lines, with some results ahead:
"EC50, CellTiter-Glo [2]","EC50, CellTiter-Glo [4]","EC50, CellTiter-Glo [6]","EC50, CellTiter-Glo [7]","EC50, CellTiter-Glo [8]","EC50, CellTiter-Glo [10]","EC50, CellTiter-Glo [11]","EC50, CellTiter-Glo [15]","EC50, CellTiter-Glo [18]","EC50, CellTiter-Blue viability [33]",Structure (SMILES),"EC50, CellTiter-Glo [1]","EC50, CellTiter-Glo [3]","EC50, CellTiter-Glo [5]","EC50, CellTiter-Glo [9]","EC50, CellTiter-Glo [13]","EC50, CellTiter-Glo [14]","EC50, CellTiter-Glo [16]","EC50, CellTiter-Glo [17]","EC50, CellTiter-Glo [19]","EC50, CellTiter-Blue viability [35]",further results
1.75 µM,2.43 µM,6.52 µM,5.62 µM,1.99 µM,3.64 µM,3.13 µM,4.38 µM,3.19 µM,–,CN(c1ccccc1CNc1nc(Nc2ccc3c(c2)CC(=O)N3)ncc1C(F)(F)F)S(C)(=O)=O,2.45 µM,1.11 µM,8.76 µM,1.49 µM,4.36 µM,1.88 µM,9.4 µM,2.13 µM,1.82 µM,–,"EC50, CellTox Green [21]: 4.49 µM; EC50, CellTox Green [26]: 1.73 µM; EC50, CellTox Green [37]: 0.0724 µM; EC50, CellTox Green [38]: > 10 µM; EC50, CellTox Green [28]: 1.29 µM; EC50, CellTox Green [39]: > 10 µM; EC50, CellTox Green [40]: 0.0209 µM"
4.64 µM,8.26 µM,–,–,–,–,–,9.62 µM,–,9.23 µM,O=C(c1ccc(OCCN2CCCCC2)cc1)c1c(-c2ccc(O)cc2)sc2cc(O)ccc12 [Raloxifene],3.61 µM,–,–,–,–,–,2.26 µM,–,–,–,"EC50, CellTox Green [39]: > 10 µM; EC50, CellTox Green [40]: > 10 µM"
0.677 µM,3.04 µM,2.73 µM,0.498 µM,0.72 µM,1.13 µM,0.396 µM,0.538 µM,0.206 µM,–,FC(F)c1nc2ccccc2n1-c1nc(N2CCOCC2)nc(N2CCOCC2)n1 [ZSTK474],0.779 µM,1.01 µM,0.958 µM,0.54 µM,0.493 µM,1.26 µM,0.737 µM,6.59 µM,0.436 µM,–,"EC50, CellTiter-Glo [12]: 0.491 µM; EC50, CellTox Green [23]: > 10 µM; EC50, CellTox Green [30]: 1.78 µM"
